Laboratory results reported in article PMC4558152, “A small molecule inhibitor of atypical protein kinase C signaling inhibits pancreatic cancer cell transformed growth and invasion” (Oncotarget, 2015).

Target: T1, PKCζ (Homo sapiens, UniProt Q05513)
T1 construct: gene PRKCZ
T1 sequence (Q05513 1-113): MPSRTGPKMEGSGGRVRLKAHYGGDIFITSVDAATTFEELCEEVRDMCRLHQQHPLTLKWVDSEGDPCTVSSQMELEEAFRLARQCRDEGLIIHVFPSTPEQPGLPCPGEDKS
T1 sequence (Q9NPB6 whole entry partner): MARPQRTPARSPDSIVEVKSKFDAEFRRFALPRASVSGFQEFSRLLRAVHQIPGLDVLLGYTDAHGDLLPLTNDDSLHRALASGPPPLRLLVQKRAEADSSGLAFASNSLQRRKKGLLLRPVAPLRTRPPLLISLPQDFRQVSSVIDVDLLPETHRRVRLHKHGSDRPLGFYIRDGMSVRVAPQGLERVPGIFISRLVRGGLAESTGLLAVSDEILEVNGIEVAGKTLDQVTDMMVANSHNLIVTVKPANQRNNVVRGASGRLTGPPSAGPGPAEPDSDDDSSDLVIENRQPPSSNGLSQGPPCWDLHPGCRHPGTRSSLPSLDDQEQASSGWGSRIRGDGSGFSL

O=C(O)CC([S][Au])C(=O)O (stereo not shown) [ATM, Aurothiomalate]
IC50: 3 µM
